Assay results: ChEMBL document CHEMBL4811258, “Potent Antimalarials with Development Potential Identified by Structure-Guided Computational Optimization of a Pyrrole-Based Dihydroorotate Dehydrogenase Inhibitor Series” (J Med Chem, 2021)
Calls of active or inactive are those of the source. The calls are words filed in the database; no cut-off is given here.

Assays:
[1] = rat, in vivo, po, 10 mg/kg, 24 h
[2] = rat, in vivo, po, 10 mg/kg, 24 h; remark: listed apart in the source
[3] = AUC (0 to infinity) in Swiss mouse at […], po measured up to 24 hrs by LC-MS analysis; type: ADME, organism-based; set-up: route oral, dose 2.6 mg/kg, time <=24; settings: in vivo
Plasmodium falciparum [4] = test: Antimalarial activity against Plasmodium falciparum 3D70087/N9 infected in orally dosed NOD-SCID IL2Rgamma null mouse assessed as parasitemia level administered days after 3 post infection once daily for 4 days measured on day 7 by flow cytometry; type: functional; settings: time 4 day
Cytochrome P450 3A4 = Cytochrome P450 3A4 (Homo sapiens, UniProt P08684)
Cytochrome P450 3A4, sequence (P08684 whole entry): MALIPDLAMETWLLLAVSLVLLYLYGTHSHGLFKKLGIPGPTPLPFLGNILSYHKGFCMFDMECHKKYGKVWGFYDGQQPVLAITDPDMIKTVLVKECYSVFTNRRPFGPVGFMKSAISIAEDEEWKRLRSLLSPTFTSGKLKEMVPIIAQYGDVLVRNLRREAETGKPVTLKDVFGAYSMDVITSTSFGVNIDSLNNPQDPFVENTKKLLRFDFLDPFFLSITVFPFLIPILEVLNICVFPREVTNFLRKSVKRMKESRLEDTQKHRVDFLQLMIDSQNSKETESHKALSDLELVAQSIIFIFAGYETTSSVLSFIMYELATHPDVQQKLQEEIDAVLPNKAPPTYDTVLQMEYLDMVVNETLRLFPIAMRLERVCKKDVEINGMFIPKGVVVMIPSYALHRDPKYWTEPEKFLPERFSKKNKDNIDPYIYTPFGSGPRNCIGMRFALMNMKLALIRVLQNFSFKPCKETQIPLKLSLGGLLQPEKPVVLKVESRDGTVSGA

[5] = Binding affinity to microsome (unknown origin); type: ADME; settings: microsomes
[6] = Oral bioavailability in Swiss mouse at 24 mg/kg measured up to 24 hrs by LC-MS analysis; type: ADME, organism-based; settings: in vivo
[7] = Unbound AUC in orally dosed NOD-SCID IL2Rgamma null mouse infected with Plasmodium falciparum 3D70087/N9 administered days after 3 post infection once daily for 4 days measured on day 7 by flow cytometry; type: ADME, organism-based; settings: in vivo, po, 96 h, time 4 day
Plasmodium falciparum [8] = system: Plasmodium falciparum
[9] = Cmax in Swiss mouse at 24 mg/kg, po measured up to 24 hrs by LC-MS analysis; type: ADME, organism-based; set-up: route oral, dose 24 mg/kg, time <=24; settings: in vivo
[10] = molecular target: Dihydroorotate dehydrogenase (quinone), mitochondrial (Rattus norvegicus, UniProt Q63707); test: Inhibition of rat DHODH up to 100 uM; settings: up to 100 µM
Dihydroorotate dehydrogenase (quinone), mitochondrial, sequence (Q63707 whole entry): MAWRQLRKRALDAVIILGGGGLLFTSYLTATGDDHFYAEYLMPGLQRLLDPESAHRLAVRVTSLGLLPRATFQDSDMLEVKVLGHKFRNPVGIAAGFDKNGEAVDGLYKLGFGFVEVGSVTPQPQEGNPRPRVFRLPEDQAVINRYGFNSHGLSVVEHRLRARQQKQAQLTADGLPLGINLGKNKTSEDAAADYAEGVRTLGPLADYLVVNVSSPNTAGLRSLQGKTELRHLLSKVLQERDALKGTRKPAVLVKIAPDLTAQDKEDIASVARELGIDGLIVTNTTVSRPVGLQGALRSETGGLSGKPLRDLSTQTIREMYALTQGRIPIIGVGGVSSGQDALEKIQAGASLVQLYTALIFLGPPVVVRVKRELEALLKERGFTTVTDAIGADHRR

in vivo [11] = settings: Swiss, mouse, po
Plasmodium falciparum [12] = test: Antimalarial activity against Plasmodium falciparum 3D70087/N9 infected in orally dosed NOD-SCID IL2Rgamma null mouse assessed as parasitemia level in human red blood cells at 50 mg/kg, po administered days after 1 day post infection twice daily for 6 days measured on day 7 by flow cytometry; type: functional, organism-based; settings: time 6.0 day
[13] = Plasma clearance in Sprague-Dawley rat at […], iv measured up to 24 hrs; type: ADME, organism-based; settings: dose 1.8 mg/kg
[14] = rat, in vivo, po, 10 mg/kg, 24 h; remark: listed apart in the source
Albumin = Albumin (Bos taurus, UniProt P02769); test: Binding affinity to bovine serum albumin by Albumax assay; type: ADME; settings: cattle, isolated protein
Albumin, sequence (P02769 whole entry): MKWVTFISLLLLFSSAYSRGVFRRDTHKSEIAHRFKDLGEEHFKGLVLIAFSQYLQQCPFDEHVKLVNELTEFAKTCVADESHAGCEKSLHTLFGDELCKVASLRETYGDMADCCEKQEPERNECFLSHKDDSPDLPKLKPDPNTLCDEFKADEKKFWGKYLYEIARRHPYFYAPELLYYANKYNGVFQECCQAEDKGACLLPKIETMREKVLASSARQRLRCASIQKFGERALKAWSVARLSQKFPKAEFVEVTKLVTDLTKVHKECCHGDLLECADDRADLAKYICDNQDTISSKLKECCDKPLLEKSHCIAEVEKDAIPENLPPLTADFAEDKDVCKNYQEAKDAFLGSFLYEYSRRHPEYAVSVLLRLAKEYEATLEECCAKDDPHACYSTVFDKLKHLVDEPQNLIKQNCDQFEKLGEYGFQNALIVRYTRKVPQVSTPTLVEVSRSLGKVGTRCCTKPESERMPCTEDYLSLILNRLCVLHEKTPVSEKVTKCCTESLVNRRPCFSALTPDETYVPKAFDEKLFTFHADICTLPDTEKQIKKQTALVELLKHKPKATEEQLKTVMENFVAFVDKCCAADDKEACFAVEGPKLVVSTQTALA

Plasmodium falciparum [15] = test: Antiplasmodial activity against asexual blood stage Plasmodium falciparum D10 expressing yeast DHODH infected in human erythrocytes assessed as parasite killing; type: functional, organism-based
[16] = Intrinsic clearance in mouse liver microsomes at 1 uM measured up to 4 hrs by LC-MS analysis; type: ADME, Microsome
[17] = Mutagenicity in Salmonella typhimurium by Ames test; type: toxicity; settings: salmonella enterica subsp. enterica serovar typhimurium
[18] = AUC (0 to infinity) in Sprague-Dawley rat at 17 mg/kg, po measured up to 24 hrs; type: ADME, organism-based; set-up: route oral, dose 17 mg/kg, time <=24; settings: in vivo
[19] = Unbound intrinsic clearance in mouse liver microsomes at 1 uM measured up to 4 hrs by LC-MS analysis; type: ADME, Microsome
Cytochrome P450 2B6 = molecular target: T1, Cytochrome P450 2B6 (Homo sapiens, UniProt P20813)
T1 sequence (P20813 whole entry): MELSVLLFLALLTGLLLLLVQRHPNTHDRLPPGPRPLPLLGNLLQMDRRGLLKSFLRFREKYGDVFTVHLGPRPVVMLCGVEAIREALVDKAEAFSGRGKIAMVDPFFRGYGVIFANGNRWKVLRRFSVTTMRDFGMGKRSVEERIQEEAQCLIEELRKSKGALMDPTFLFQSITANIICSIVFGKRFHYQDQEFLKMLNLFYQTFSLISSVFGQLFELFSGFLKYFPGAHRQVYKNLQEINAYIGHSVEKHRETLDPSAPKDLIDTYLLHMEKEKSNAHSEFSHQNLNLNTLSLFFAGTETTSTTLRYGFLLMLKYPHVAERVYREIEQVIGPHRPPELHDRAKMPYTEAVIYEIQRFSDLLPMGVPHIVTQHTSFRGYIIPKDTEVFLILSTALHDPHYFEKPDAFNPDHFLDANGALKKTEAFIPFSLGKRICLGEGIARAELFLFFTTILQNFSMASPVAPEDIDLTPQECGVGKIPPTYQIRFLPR

[20] = Plasma clearance in Swiss mouse at […], iv measured up to 24 hrs by LC-MS analysis; type: ADME, organism-based; settings: dose 2.3 mg/kg
[21] = Apparent half life in Sprague-Dawley rat at 17 mg/kg, po measured up to 24 hrs; type: ADME, organism-based; settings: in vivo, read-out: t1/2(app) (converted)
[22] = Cmax in Swiss mouse at […], po measured up to 24 hrs by LC-MS analysis; type: ADME, organism-based; set-up: route oral, dose 2.6 mg/kg, time <=24; settings: in vivo
[23] = Oral bioavailability in Swiss mouse at […] measured up to 24 hrs by LC-MS analysis; type: ADME, organism-based; settings: in vivo, dose 2.6 mg/kg
[24] = rat, in vivo, po, 10 mg/kg, 24 h; remark: listed apart in the source
[25] = Cmax in Sprague-Dawley rat at 17 mg/kg, po measured up to 24 hrs; type: ADME, organism-based; set-up: route oral, dose 17 mg/kg, time <=24; settings: in vivo
in vivo [26] = settings: Sprague-Dawley, rat, po, 17 mg/kg
L1210 = test: Cytotoxicity against mouse L1210 cells; type: cell-based
Plasmodium falciparum [27] = test: Antimalarial activity against Plasmodium falciparum 3D70087/N9 infected in NOD-SCID IL2Rgamma null mouse assessed as parasitemia level at 50 mg/kg, po administered days after 3 post infection once daily for 4 days measured on day 7 by flow cytometry; type: functional, organism-based; settings: time 4.0 day
Cytochrome P450 2C8 = molecular target: T2, Cytochrome P450 2C8 (Homo sapiens, UniProt P10632)
T2 sequence (P10632 whole entry): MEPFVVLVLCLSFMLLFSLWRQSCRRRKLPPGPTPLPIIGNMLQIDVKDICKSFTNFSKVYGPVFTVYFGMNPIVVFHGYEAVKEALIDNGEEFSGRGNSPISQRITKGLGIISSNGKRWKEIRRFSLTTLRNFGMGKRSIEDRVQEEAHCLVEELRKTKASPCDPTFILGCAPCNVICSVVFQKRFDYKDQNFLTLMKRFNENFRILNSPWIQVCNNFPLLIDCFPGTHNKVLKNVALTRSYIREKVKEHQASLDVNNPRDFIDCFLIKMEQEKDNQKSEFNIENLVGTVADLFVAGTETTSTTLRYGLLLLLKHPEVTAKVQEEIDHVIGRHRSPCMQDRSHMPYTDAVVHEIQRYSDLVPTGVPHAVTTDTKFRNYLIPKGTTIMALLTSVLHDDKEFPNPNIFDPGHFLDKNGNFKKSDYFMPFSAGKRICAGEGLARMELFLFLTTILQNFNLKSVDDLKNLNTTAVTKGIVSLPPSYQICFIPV

[28] = human, plasma
[29] = AUC (0 to infinity) in Swiss mouse at 24 mg/kg, po measured up to 24 hrs by LC-MS analysis; type: ADME, organism-based; set-up: route oral, dose 24 mg/kg, time <=24; settings: in vivo
[30] = mouse, plasma

Question: For Cc1c(C2(c3ccc(C(F)(F)F)nc3)CC2)c[nH]c1C(=O)NC(C)c1nc[nH]n1 (stereo in doubt; form 1), which “t1/2(app)” value [1] is on record?
Answer: 5.9 h

Question: And the Cmax [2]?
Answer: 6 µM

Question: What about the AUC(0-inf) at 24 h [3] of the same molecule?
Answer: 29 µM·h

Question: And the ED50 (Plasmodium falciparum [4])?
Answer: 26 mg/kg

Question: And the TDI (Cytochrome P450 3A4)?
Answer: Not Active

Question: What about the Activity [5] of the same molecule?
Answer: 34.2%

Question: And the F [6]?
Answer: 70%

Question: What about the fAUC [7] of the same molecule?
Answer: 4.1 µM·h

Question: And the EC50 (Plasmodium falciparum [8])?
Answer: 0.17 µM

Question: What about the Cmax [9] of the same molecule?
Answer: 20 µM

Question: What about the “inhibition (INH)” value [10] of the same molecule?
Answer: Not Active

Question: And the Tmax at 24 h (in vivo [11])?
Answer: 4 h

Question: And the Activity (Plasmodium falciparum [12])?
Answer: Active

Question: And the clearance at 24 h [13]?
Answer: 6.8 mL/min/kg

Question: And the AUC [14]?
Answer: 47 µM·h

Question: And the Activity (Albumin)?
Answer: 71.9%

Question: What about the EC50 (Plasmodium falciparum [15]) of the same molecule?
Answer: > 10 µM

Question: And the Intrinsic clearance [16]?
Answer: 11 µL/min/mg

Question: What about the Activity [17] of the same molecule?
Answer: Non-Toxic

Question: What about the AUC(0-inf) [18] of the same molecule?
Answer: 120 µM·h

Question: And the CL free [19]?
Answer: 17 µL/min/mg

Question: What about the IC50 (Cytochrome P450 2B6) of the same molecule?
Answer: > 20 µM

Question: And the clearance at 24 h [20]?
Answer: 2.8 mL/min/kg

Question: What about the half-life [21] of the same molecule?
Answer: 3.7 h

Question: What about the Cmax at 24 h [22] of the same molecule?
Answer: 2.6 µM

Question: And the bioavailability at 24 h [23]?
Answer: 74%

Question: What about the F [24] of the same molecule?
Answer: 77%

Question: What about the Cmax [25] of the same molecule?
Answer: 14 µM

Question: And the Tmax at 24 h (in vivo [26])?
Answer: 2.5 h

Question: What about the Activity (L1210) of the same molecule?
Answer: Non-Toxic

Question: What about the Activity (Plasmodium falciparum [27]) of the same molecule?
Answer: Active

Question: And the IC50 (Cytochrome P450 2C8)?
Answer: > 20 µM

Question: And the PPB [28]?
Answer: 92.8%

Question: And the AUC [29]?
Answer: 250 µM·h

Question: What about the PPB [30] of the same molecule?
Answer: 92.1%
